Source: ChEMBL document CHEMBL4507320, “Data for DCP probe NVS-MALT1” (2021)

Tests used:
[1] = target: Receptor-interacting serine/threonine-protein kinase 1 (Homo sapiens) (UniProt Q13546); conditions: Compound concentration 1000.0 nM
[2] = target: Tyrosine-protein kinase SYK (Homo sapiens) (UniProt P43405); conditions: Compound concentration 1000.0 nM
[3] = target: Serine/threonine-protein kinase pim-2 (Homo sapiens) (UniProt Q9P1W9); conditions: Compound concentration 1000.0 nM
[4] = test system: Tyrosine-protein kinase ABL1 (Homo sapiens), P00519 [Y253F]; conditions: Compound concentration 1000.0 nM
[5] = target: Serine/threonine-protein kinase Sgk3 (Homo sapiens) (UniProt Q96BR1); conditions: Compound concentration 1000.0 nM
[6] = target: Cyclin-dependent kinase-like 3 (Homo sapiens) (UniProt Q8IVW4); conditions: Compound concentration 1000.0 nM
[7] = target: Tyrosine-protein kinase Lyn (Homo sapiens) (UniProt P07948); conditions: Compound concentration 1000.0 nM
[8] = target: Platelet-derived growth factor receptor alpha (Homo sapiens) (UniProt P16234); conditions: Compound concentration 1000.0 nM
[9] = target: Insulin receptor (Homo sapiens) (UniProt P06213); conditions: Compound concentration 1000.0 nM
[10] = test system: Epidermal growth factor receptor (Homo sapiens), P00533 [UNDEFINED MUTATION]; conditions: Compound concentration 1000.0 nM
[11] = target: Beta-3 adrenergic receptor (Homo sapiens) (UniProt P13945); conditions: Compound concentration 10.0 uM
[12] = target: Serine/threonine-protein kinase Sgk2 (Homo sapiens) (UniProt Q9HBY8); conditions: Compound concentration 1000.0 nM
[13] = target: 5-hydroxytryptamine receptor 2C (Homo sapiens) (UniProt P28335); conditions: Compound concentration 10.0 uM
[14] = target: Casein kinase I isoform alpha (Homo sapiens) (UniProt P48729); conditions: Compound concentration 1000.0 nM
[15] = target: MAP/microtubule affinity-regulating kinase 3 (Homo sapiens) (UniProt P27448); conditions: Compound concentration 1000.0 nM
[16] = test system: Hepatocyte growth factor receptor (Homo sapiens), P08581 [Y1235D]; conditions: Compound concentration 1000.0 nM
[17] = target: Serine/threonine-protein kinase N1 (Homo sapiens) (UniProt Q16512); conditions: Compound concentration 1000.0 nM
[18] = target: Tyrosine-protein kinase Mer (Homo sapiens) (UniProt Q12866); conditions: Compound concentration 1000.0 nM
[19] = test system: Mast/stem cell growth factor receptor Kit (Homo sapiens), P10721 [D816V]; conditions: Compound concentration 1000.0 nM
[20] = target: Serine/threonine-protein kinase VRK2 (Homo sapiens) (UniProt Q86Y07); conditions: Compound concentration 1000.0 nM
[21] = target: Cyclin-dependent kinase 15 (Homo sapiens) (UniProt Q96Q40); conditions: Compound concentration 1000.0 nM
[22] = test system: ALK tyrosine kinase receptor (Homo sapiens), Q9UM73 [C1156Y]; conditions: Compound concentration 1000.0 nM
[23] = target: Serine/threonine-protein kinase MARK2 (Homo sapiens) (UniProt Q7KZI7); conditions: Compound concentration 1000.0 nM
[24] = target: Serine/threonine-protein kinase Nek2 (Homo sapiens) (UniProt P51955); conditions: Compound concentration 1000.0 nM
[25] = target: Ankyrin repeat and protein kinase domain-containing protein 1 (Homo sapiens) (UniProt Q8NFD2); conditions: Compound concentration 1000.0 nM
[26] = target: Serine/threonine-protein kinase 16 (Homo sapiens) (UniProt O75716); conditions: Compound concentration 1000.0 nM
[27] = target: Cyclin-dependent kinase 14 (Homo sapiens) (UniProt O94921); conditions: Compound concentration 1000.0 nM
[28] = test system: Receptor-type tyrosine-protein kinase FLT3 (Homo sapiens), P36888 [D835Y]; conditions: Compound concentration 1000.0 nM
[29] = target: Vascular endothelial growth factor receptor 3 (Homo sapiens) (UniProt P35916); conditions: Compound concentration 1000.0 nM
[30] = target: Cyclin-dependent kinase 2 homolog (Plasmodium falciparum (isolate 3D7)) (UniProt P61075); conditions: Compound concentration 1000.0 nM
[31] = target: Serine/threonine-protein kinase STK11 (Homo sapiens) (UniProt Q15831); conditions: Compound concentration 1000.0 nM
[32] = target: Serine/threonine-protein kinase Nek4 (Homo sapiens) (UniProt P51957); conditions: Compound concentration 1000.0 nM
[33] = target: Calcium/calmodulin-dependent protein kinase type II subunit beta (Homo sapiens) (UniProt Q13554); conditions: Compound concentration 1000.0 nM
[34] = target: D(1B) dopamine receptor (Homo sapiens) (UniProt P21918); conditions: Compound concentration 10.0 uM
[35] = target: Serine/threonine-protein kinase 32A (Homo sapiens) (UniProt Q8WU08); conditions: Compound concentration 1000.0 nM
[36] = target: Cyclin-dependent kinase 17 (Homo sapiens) (UniProt Q00537); conditions: Compound concentration 1000.0 nM
[37] = target: Tyrosine-protein kinase Yes (Homo sapiens) (UniProt P07947); conditions: Compound concentration 1000.0 nM
[38] = target: Serine/threonine-protein kinase PLK1 (Homo sapiens) (UniProt P53350); conditions: Compound concentration 1000.0 nM
[39] = target: Uncharacterized serine/threonine-protein kinase SBK3 (Homo sapiens) (UniProt P0C264); conditions: Compound concentration 1000.0 nM
[40] = target: Phosphatidylinositol 4-phosphate 5-kinase type-1 gamma (Homo sapiens) (UniProt O60331); conditions: Compound concentration 1000.0 nM
[41] = target: Phosphorylase b kinase regulatory subunit alpha, liver isoform (Homo sapiens) (UniProt P46019); conditions: Compound concentration 1000.0 nM
[42] = target: MAP kinase-interacting serine/threonine-protein kinase 1 (Homo sapiens) (UniProt Q9BUB5); conditions: Compound concentration 1000.0 nM
[43] = target: Hepatocyte growth factor receptor (Homo sapiens) (UniProt P08581); conditions: Compound concentration 1000.0 nM
[44] = target: Fibroblast growth factor receptor 4 (Homo sapiens) (UniProt P22455); conditions: Compound concentration 1000.0 nM
[45] = test system: Tyrosine-protein kinase ABL1 (Homo sapiens), P00519 [M351T]; conditions: Compound concentration 1000.0 nM

Tyrosine-protein kinase Lyn (Homo sapiens), sequence (P07948 2-512 limits assumed): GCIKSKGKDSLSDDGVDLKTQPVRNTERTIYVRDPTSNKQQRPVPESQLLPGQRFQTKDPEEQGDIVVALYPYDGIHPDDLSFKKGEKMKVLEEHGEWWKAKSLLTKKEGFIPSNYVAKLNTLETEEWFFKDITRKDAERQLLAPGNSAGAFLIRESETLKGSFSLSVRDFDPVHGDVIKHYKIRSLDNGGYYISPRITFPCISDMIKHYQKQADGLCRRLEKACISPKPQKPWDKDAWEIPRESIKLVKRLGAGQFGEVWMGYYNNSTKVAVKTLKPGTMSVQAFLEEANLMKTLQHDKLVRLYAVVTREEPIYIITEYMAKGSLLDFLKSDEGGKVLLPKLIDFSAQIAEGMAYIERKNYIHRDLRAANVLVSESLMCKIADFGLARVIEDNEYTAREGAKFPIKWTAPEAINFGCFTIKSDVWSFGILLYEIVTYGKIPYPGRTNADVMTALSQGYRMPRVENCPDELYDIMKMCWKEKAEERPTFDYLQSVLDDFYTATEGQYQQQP
Phosphorylase b kinase regulatory subunit alpha, liver isoform (Homo sapiens), sequence (P46019 whole entry, canonical isoform): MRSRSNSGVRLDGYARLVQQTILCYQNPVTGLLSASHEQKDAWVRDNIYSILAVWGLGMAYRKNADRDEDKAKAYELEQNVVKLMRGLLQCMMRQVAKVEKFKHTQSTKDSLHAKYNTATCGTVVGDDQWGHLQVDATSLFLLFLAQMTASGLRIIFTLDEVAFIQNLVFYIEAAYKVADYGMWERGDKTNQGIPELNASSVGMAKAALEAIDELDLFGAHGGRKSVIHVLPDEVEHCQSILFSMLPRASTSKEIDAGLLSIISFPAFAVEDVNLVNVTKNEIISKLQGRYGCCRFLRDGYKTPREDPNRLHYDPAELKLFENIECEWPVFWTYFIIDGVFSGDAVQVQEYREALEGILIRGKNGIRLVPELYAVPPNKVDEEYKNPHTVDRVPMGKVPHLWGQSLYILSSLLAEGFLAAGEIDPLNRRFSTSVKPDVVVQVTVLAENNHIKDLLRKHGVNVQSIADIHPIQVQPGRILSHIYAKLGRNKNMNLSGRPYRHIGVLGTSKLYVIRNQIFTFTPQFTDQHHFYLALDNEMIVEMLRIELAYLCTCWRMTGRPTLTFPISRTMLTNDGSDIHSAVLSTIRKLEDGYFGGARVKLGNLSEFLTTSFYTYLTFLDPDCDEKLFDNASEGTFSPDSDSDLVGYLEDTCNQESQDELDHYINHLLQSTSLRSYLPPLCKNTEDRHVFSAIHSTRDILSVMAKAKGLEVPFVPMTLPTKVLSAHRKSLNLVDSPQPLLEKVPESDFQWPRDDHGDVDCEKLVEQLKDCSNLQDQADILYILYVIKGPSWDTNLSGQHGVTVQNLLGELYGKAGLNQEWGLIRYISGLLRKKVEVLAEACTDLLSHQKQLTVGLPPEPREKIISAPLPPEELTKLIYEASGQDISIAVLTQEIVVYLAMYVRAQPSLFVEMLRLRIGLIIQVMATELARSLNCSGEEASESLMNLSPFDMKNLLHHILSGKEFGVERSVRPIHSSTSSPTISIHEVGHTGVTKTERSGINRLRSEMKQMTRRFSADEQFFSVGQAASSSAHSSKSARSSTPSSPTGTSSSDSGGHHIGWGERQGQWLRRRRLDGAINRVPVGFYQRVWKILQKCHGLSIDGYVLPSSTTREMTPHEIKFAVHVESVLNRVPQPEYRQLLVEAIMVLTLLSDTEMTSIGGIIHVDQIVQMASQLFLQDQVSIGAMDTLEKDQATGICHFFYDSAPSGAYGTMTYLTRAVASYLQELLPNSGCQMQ
Mast/stem cell growth factor receptor Kit (Homo sapiens), P10721 [D816V], sequence (P10721 whole entry D816V): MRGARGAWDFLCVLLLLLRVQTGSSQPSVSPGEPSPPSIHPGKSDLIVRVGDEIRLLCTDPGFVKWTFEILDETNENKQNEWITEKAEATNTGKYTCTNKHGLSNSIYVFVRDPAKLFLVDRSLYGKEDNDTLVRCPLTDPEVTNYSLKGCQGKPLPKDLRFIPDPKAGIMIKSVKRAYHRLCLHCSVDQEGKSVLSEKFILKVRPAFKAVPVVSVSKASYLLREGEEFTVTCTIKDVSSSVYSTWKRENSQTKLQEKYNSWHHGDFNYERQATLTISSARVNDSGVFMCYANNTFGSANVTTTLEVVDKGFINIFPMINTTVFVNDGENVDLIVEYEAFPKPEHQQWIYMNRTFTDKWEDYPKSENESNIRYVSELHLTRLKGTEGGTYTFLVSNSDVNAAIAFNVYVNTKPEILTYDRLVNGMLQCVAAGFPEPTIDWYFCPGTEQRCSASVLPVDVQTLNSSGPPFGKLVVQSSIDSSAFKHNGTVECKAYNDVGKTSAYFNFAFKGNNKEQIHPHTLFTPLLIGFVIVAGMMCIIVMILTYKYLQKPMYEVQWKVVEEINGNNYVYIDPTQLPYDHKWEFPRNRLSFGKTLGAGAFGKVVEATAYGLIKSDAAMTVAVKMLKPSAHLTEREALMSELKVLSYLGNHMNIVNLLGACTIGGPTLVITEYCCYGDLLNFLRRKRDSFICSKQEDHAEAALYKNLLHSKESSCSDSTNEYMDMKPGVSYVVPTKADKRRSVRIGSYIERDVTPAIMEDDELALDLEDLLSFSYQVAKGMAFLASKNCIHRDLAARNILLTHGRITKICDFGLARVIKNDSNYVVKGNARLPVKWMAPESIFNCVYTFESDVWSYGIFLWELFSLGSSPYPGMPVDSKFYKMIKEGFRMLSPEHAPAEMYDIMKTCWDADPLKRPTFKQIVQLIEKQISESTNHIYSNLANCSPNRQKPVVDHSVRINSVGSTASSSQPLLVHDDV
Serine/threonine-protein kinase MARK2 (Homo sapiens), sequence (Q7KZI7 whole entry): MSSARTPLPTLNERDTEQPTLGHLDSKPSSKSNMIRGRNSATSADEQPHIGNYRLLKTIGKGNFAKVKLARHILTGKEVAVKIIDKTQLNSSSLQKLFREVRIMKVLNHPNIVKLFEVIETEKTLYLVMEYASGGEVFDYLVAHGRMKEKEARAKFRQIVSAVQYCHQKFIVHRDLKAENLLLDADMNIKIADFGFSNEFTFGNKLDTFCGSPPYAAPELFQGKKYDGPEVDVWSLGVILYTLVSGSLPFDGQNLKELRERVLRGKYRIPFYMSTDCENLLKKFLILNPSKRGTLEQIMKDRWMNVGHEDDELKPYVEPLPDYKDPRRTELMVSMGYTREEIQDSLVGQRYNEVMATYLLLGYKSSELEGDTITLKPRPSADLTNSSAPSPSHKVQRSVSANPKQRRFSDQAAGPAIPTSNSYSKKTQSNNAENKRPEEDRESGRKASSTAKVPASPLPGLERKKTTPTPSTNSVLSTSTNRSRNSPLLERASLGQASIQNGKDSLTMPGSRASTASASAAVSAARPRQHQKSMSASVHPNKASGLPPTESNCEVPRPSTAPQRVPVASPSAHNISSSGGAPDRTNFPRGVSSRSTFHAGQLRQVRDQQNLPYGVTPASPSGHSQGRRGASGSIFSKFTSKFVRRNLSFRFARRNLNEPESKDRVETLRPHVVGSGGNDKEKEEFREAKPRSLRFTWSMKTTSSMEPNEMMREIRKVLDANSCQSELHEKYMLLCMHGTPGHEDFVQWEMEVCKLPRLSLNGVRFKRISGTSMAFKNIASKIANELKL
MAP/microtubule affinity-regulating kinase 3 (Homo sapiens), sequence (P27448 whole entry, looked up): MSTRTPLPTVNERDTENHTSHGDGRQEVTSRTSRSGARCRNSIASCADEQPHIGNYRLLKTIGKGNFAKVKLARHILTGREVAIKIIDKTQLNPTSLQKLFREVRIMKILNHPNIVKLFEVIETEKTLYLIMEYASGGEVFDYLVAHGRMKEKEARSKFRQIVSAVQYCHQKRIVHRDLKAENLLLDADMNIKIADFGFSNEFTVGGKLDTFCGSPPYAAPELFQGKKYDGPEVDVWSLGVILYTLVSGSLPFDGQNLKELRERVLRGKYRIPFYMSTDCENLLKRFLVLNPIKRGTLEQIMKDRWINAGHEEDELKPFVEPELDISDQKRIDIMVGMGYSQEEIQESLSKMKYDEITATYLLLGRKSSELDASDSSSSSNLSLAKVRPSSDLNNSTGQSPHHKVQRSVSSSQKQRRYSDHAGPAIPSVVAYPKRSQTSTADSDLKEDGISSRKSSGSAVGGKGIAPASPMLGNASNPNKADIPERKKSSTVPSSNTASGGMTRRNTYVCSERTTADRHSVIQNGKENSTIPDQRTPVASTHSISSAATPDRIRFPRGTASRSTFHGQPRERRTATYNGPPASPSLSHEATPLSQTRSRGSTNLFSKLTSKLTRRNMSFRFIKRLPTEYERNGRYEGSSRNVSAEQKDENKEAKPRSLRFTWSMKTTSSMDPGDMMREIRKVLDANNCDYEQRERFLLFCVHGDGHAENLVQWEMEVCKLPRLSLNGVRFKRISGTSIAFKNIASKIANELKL
Serine/threonine-protein kinase pim-2 (Homo sapiens), sequence (Q9P1W9 whole entry, looked up): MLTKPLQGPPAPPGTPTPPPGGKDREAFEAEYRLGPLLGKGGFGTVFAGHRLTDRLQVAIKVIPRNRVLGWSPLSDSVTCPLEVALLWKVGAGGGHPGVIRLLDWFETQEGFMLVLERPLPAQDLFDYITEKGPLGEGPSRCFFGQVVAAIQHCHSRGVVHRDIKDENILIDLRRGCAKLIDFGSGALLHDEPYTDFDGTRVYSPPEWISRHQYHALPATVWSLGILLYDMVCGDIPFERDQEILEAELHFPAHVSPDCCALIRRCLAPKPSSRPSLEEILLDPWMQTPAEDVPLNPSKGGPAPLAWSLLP
Cyclin-dependent kinase 2 homolog (Plasmodium falciparum (isolate 3D7)), sequence (P61075 whole entry): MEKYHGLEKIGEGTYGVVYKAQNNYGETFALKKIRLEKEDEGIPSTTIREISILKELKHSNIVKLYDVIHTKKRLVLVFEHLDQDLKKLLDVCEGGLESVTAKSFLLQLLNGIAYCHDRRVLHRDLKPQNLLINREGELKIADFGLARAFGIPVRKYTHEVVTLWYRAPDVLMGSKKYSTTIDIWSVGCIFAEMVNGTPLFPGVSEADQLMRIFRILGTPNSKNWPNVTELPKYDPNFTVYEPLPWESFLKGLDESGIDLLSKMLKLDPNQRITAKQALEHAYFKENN

CO[C@@H](C)c1c(Nc2ccc([C@H](N(C)C(=O)C3CCS(=O)(=O)CC3)C(F)(F)F)cc2)cnc2cc(Cl)nn12 [NVS-MALT1]
inactive: residual activity [1] 91% | residual activity [2] 82% | residual activity [3] 100% | residual activity [4] 100% | residual activity [5] 100% | residual activity [6] 73% | residual activity [7] 77% | residual activity [8] 100% | residual activity [9] 87% | residual activity [10] 98% | inhibition [11] 15.4% | residual activity [12] 91% | inhibition [13] -4.22% | residual activity [14] 51% | residual activity [15] 100% | residual activity [16] 100% | residual activity [17] 100% | residual activity [18] 87% | residual activity [19] 96% | residual activity [20] 100% | residual activity [21] 74% | residual activity [22] 89% | residual activity [23] 100% | residual activity [24] 100% | residual activity [25] 100% | residual activity [26] 75% | residual activity [27] 100% | residual activity [28] 59% | residual activity [29] 89% | residual activity [30] 100% | residual activity [31] 68% | residual activity [32] 90% | residual activity [33] 94% | inhibition [34] 9.7% | residual activity [35] 100% | residual activity [36] 75% | residual activity [37] 99% | residual activity [38] 77% | residual activity [39] 84% | residual activity [40] 100% | residual activity [41] 96% | residual activity [42] 100% | residual activity [43] 100% | residual activity [44] 85% | residual activity [45] 65%

CO[C@@H](C)c1c(Nc2ccc([C@@H](N(C)C(=O)C3CCS(=O)(=O)CC3)C(F)(F)F)cc2)cnc2cc(Cl)nn12 [NVS-MALT1-C]
active: residual activity [28] 42% | residual activity [41] 44%
inactive: residual activity [1] 84% | residual activity [2] 90% | residual activity [3] 95% | residual activity [4] 100% | residual activity [5] 100% | residual activity [6] 73% | residual activity [7] 97% | residual activity [8] 100% | residual activity [9] 95% | residual activity [10] 100% | inhibition [11] 12.9% | residual activity [12] 99% | inhibition [13] 3.25% | residual activity [14] 72% | residual activity [15] 100% | residual activity [16] 85% | residual activity [17] 99% | residual activity [18] 79% | residual activity [19] 99% | residual activity [20] 100% | residual activity [21] 94% | residual activity [22] 79% | residual activity [23] 100% | residual activity [24] 94% | residual activity [25] 100% | residual activity [26] 100% | residual activity [27] 99% | residual activity [29] 84% | residual activity [30] 100% | residual activity [31] 78% | residual activity [32] 90% | residual activity [33] 96% | inhibition [34] 4.72% | residual activity [35] 100% | residual activity [36] 100% | residual activity [37] 100% | residual activity [38] 87% | residual activity [39] 81% | residual activity [40] 100% | residual activity [42] 100% | residual activity [43] 85% | residual activity [44] 92% | residual activity [45] 59%
